Values of other authors, collected in US6656448B1, “Matrix metalloproteinase inhibitors” (Bristol-Myers Squibb Pharma Company, priority 2000, dated 2003).

System: MMP-2 and MMP-9

O=C(NO)C1(CS(=O)(=O)c2ccc(Oc3ccc(Cl)cc3)cc2)CCOCC1 [Example 13]
selectivity for MMP-2 and MMP-9: selectivity for MMP-2 and MMP-9
